Measurements published in paper PMC13252604, “First Generation Proteolysis Targeting Chimeras (PROTACs) for the Treatment of Progeria” (Advanced Science, 2026).

Assays:
[1] = tested on: HGADFN167 Lmna^G608G/G608G fibroblasts; assay: RT-qPCR of senescence markers in human progeroid cells; format: cell-based; conditions: HGADFN167, 5 µM, 20 days
From the text: FIGURE 6 (A) Representative cropped immunoblots and progerin quantification in human Lmna^G608G/G608G fibroblasts. MW, molecular weight (in kDa) markers. […] (B) PROTAC 2 increases cell proliferation (upper panels) and decreases the number of misshapen nuclei (lower panels). White arrows highlight selected misshapen nuclei. (C) PROTAC 2 decreases senescence‐associated β‐galactosidase (SA‐βgal) activity, interleukin (IL) 6, p16 and p21 senescent markers. Bar graphs show mean±sem of 2 (SA‐βgal and p21) or 3 (IL‐6 and p16) independent experiments performed in triplicate. (D) PROTAC 2 decreases phosphorylated histone 2AX (pH2AX) and increases trimethylated histone 3 (H3K9Me3) levels. (E) PROTAC 2 increases the oxygen consumption rate (OCR), ATP production and the number of healthy mitochondria in human progeroid cells. Bar graphs show mean±sem of 2 independent experiments performed in duplicate. […] Data were analysed using one‐way ANOVA followed by Dunnett's post–hoc test vs vehicle (panel A) or vs G608G cells (panels B‐E). ^*, p < 0.05; ^**, p < 0.01; ^***, p < 0.001; ^****, p < 0.0001. […]
(§1) ferrocyanide, 0.6 mL 5 M NaCl, 0.2 mL 0.2 M MgCl2, (all from Sigma Aldrich) and 6.2 mL of deionized water in a total volume of 20 mL] in the dark in a humidified incubator at 37 °C for 24 h without CO2 supply. Then, an equal volume of the supernatant of each well was transferred to a new 96-well plate for fluorescence measurement. The resultant production of fluorescein was measured using a FluoStar Optima instrument (BMG Labtech) with an excitation of 485 nm and emission at 535 nm. […]
Total RNA was extracted by RNAeasy Mini Kit (Qiagen) according to the manufacturer instructions and subsequently quantified using the NanoPhotometer N60 (Implen). […] Quantitative real-time PCR was run in the QuantStudio 7FLEX (Applied Biosystems) system and results were normalized according to β-actin quantification.
Specific `in-house´ designed primers (see sequence below) were purchased from Metabion. The threshold cycle (Ct) was determined, and the relative gene expression was […]

[2] = tested on: Lmna^G609G/G609G fibroblasts; assay: Senescence-associated β-galactosidase activity in mouse progeroid cells; format: cell-based; conditions: 5 µM
Procedure: Confocal fluorescence microscopy images are representative of 2 independent experiments. […] Representative cropped immunoblots are shown. […] MW, molecular weight (in kDa) markers. (C) PROTAC 2 decreases senescence‐associated β‐galactosidase (SA‐βgal) activity, interleukin (IL) 1α and p16 senescent markers. Lmna^G609G/G609G (G609G) or Lmna^+/+ (WT) fibroblasts were incubated with vehicle or compound 2 (5 µM). […] Data were analysed using one‐way ANOVA followed by Dunnett's post–hoc test. ^*, p < 0.05; ^**, p < 0.01, ^***, p < 0.001, ^****, p < 0.0001 vs G609G cells. […]
TBS-T and proteins were visualized by quimioluminiscence (GE Healthcare […]
SA β-galactosidase activity was determined by the FDG method. […]
as §1
Total RNA was extracted by RNAeasy Mini Kit (Qiagen) according to the manufacturer instructions and subsequently quantified using the NanoPhotometer N60 (Implen). […]

CC1(C)Oc2cc3oc(=O)ccc3cc2C[C@@H]1OC(=O)CCCCCNc1cccc2c1C(=O)N(C1CCC(=O)NC1=O)C2=O (stereo partly shown) [compound 2]
significantly reduced: IL‐6 senescent marker [1] | p16 senescent marker [1] | p21 senescent marker [1] | senescence‐associated β‐galactosidase (SA‐βgal) activity [2]
